Laboratory results reported in PMC9114115, “Property space mapping of Pseudomonas aeruginosa permeability to small molecules” (Scientific Reports, 2022).
Several values for one entry are separate records, joined by “and”; a condition that tells them apart may be missing. Identical values can stand only once.

test system: P. aeruginosa PAO1-Pore; assay: MIC by two-fold dilution, hyperporinated PAO1-Pore; assay type: cell-based, Pseudomonas aeruginosa; details: PAO1-Pore, LB broth, Table S2
Method: (§1) In all experiments, P. aeruginosa PAO1-Pore (PAO1 attTn7::PLAC-fhuA) and PΔ3-Pore (ΔmexAB ΔmexCD ΔmexXY attTn7::PLAC-fhuA) strains were used[29]. Strains were routinely grown in Luria–Bertani (LB) or MOPS-M9 medium at 37 °C with aeration. MICs shown in Tables 1 and 2 were determined by a two-fold dilution method in LB broth and MOPS-M9 medium, respectively, following the previously described protocol.

SMILES | MICs
C[C@H]1COc2c(N3CCN(C)CC3)c(F)cc3c(=O)c(C(=O)O)cn1c23 [OU-0000806, Levofloxacin] | 0.25
COc1cccc2c1C(=O)c1c(O)c3c(c(O)c1C2=O)C[C@@](O)(C(=O)CO)C[C@@H]3O[C@H]1C[C@H](N)[C@H](O)[C@H](C)O1 [OU-0000835, Doxorubicin] | 100

same assay, conditions: Pseudomonas aeruginosa, PAO1, read-out: MICs

SMILES | MIC
COc1cnc(NS(=O)(=O)c2ccc(N)cc2)nc1 [OU-0000694] | 12.5 µM and 3.5 µg/mL
C[C@H]1COc2c(N3CCN(C)CC3)c(F)cc3c(=O)c(C(=O)O)cn1c23 [OU-0000806, Levofloxacin] | 0.031 µM and 0.011 µg/mL
COc1cccc2c1C(=O)c1c(O)c3c(c(O)c1C2=O)C[C@@](O)(C(=O)CO)C[C@@H]3O[C@H]1C[C@H](N)[C@H](O)[C@H](C)O1 [OU-0000835, Doxorubicin] | 12.5 µM and 6.8 µg/mL
COc1cc(NS(=O)(=O)c2ccc(N)cc2)nc(OC)n1 [Sulfadimethoxine] | 25 µM and 7.8 µg/mL
Nc1ccc(S(=O)(=O)Nc2ccnn2-c2ccccc2)cc1 [Sulfaphenazole] | 12.5 µM and 3.9 µg/mL
Nc1ccc(S(=O)(=O)Nc2nccs2)cc1 [Sulfathiazole] | 3.2 µM and 0.8 µg/mL
Cc1noc(NS(=O)(=O)c2ccc(N)cc2)c1C [Sulfisoxazole] | > 200 µM

test system: P. aeruginosa PAO1 cells; assay: LC–MS quantification of intracellular accumulation, PAO1; details: 1 min incubation, 10-80 µM;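 note: slope of accumulation versus external concentration fitted as a line through zero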
Method: (§2) PAO1-Pore and PΔ3-Pore were grown at 37 °C overnight with shaking at 225 rpm in 50 mM MOPS-M9 (pH 7.2) Minimal Medium supplemented with 1% glycerol[42],[43].
(§3) The next day, cells were sub-cultured (1.5:100) in fresh MOPS-M9 medium and grown for 16 h. The cultures were then split into two flasks and one of them was induced with 0.1 mM IPTG. Cells incubated for additional 4 h until OD600 reached ~ 1.0 and harvested by centrifugation at 3,275xg for 20 min in RT, washed and concentrated 10X in the spent medium. Assays were performed in 96-well plates in a final volume of […]. Cells were incubated with 10, 20, 40, 80 µM of compounds and after 1- and 40-min incubation at RT, 100 µL cell aliquots were collected by vacuum filtration onto 1.0 µm Glass Fiber Type B filters. For no-cell controls, compounds were diluted to 10, 20, 40, 80 µM final concentration in the same medium, incubated for 1 min and 40 min and filtered onto the same plates. The cell loaded and cell-free filters were dried, removed from plates and placed into 100% methanol at -80 °C for at least 10 min. Filter-bound material was extracted by water bath sonication for 1 min. Cell and filter debris were separated by ultracentrifugation at 45,000 rpm (TLA55 rotor, Beckman) for 8 min at 16 °C and the pellet re-extracted with 80% methanol in water by sonication for 15 min followed by ultracentrifugation at the same conditions. Supernatants from two extractions were combined. For the compound quantification, 5 µL of solution was analyzed in triplicate.
(§4) Calibration curves for MS analyses of compounds were generated in the same experiment by mixing compound at increasing concentrations with the sonicated PAO1 cell extracts. […] Azithromycin was used as a positive control in all experiments.
(§5) Samples were processed in positive ion mode. An Eclipse plus C18 Rapid Resolution HD column (1.8 μm, 2.1 × 50 mm, Agilent, USA) was used for separation. The flow rate was 0.6 mL/min using the following gradient: 0 to 1 min (0- 20% ACN), 1 to 4 min (20- 80% ACN), 4 to 5.1 min (80–100% ACN), 5.1 to 6.30 (100% ACN). Solvents contained 0.1% formic acid to promote positive ion formation in the electrospray. […] Data were analyzed using Agilent Masshunter workstation quantitative analysis v. B.10 software.

SMILES | Concentration slopes of accumulation, PAO1_1 min
COc1cnc(NS(=O)(=O)c2ccc(N)cc2)nc1 [OU-0000694] | 2.18
C[C@H]1COc2c(N3CCN(C)CC3)c(F)cc3c(=O)c(C(=O)O)cn1c23 [OU-0000806, Levofloxacin] | 3.66
COc1cccc2c1C(=O)c1c(O)c3c(c(O)c1C2=O)C[C@@](O)(C(=O)CO)C[C@@H]3O[C@H]1C[C@H](N)[C@H](O)[C@H](C)O1 [OU-0000835, Doxorubicin] | 1.38

same assay, conditions: 40 min incubation, 10-80 µM

SMILES | Concentration slopes of accumulation, PAO1_40 min
COc1cnc(NS(=O)(=O)c2ccc(N)cc2)nc1 [OU-0000694] | 1.74
C[C@H]1COc2c(N3CCN(C)CC3)c(F)cc3c(=O)c(C(=O)O)cn1c23 [OU-0000806, Levofloxacin] | 5.59
COc1cccc2c1C(=O)c1c(O)c3c(c(O)c1C2=O)C[C@@](O)(C(=O)CO)C[C@@H]3O[C@H]1C[C@H](N)[C@H](O)[C@H](C)O1 [OU-0000835, Doxorubicin] | 0.84

test system: P. aeruginosa PΔ3-Pore; assay: MIC by two-fold dilution, barrierless PΔ3-Pore; assay type: cell-based, Pseudomonas aeruginosa; details: Pseudomonas aeruginosa, read-out: MICs, P∆3-Pore, MOPS-M9 medium
Method: as §1

SMILES | MIC
COc1cnc(NS(=O)(=O)c2ccc(N)cc2)nc1 [OU-0000694] | 6.25 µM and 1.75 µg/mL
C[C@H]1COc2c(N3CCN(C)CC3)c(F)cc3c(=O)c(C(=O)O)cn1c23 [OU-0000806, Levofloxacin] | 0.008 µM and 0.003 µg/mL
COc1cccc2c1C(=O)c1c(O)c3c(c(O)c1C2=O)C[C@@](O)(C(=O)CO)C[C@@H]3O[C@H]1C[C@H](N)[C@H](O)[C@H](C)O1 [OU-0000835, Doxorubicin] | 3.2 µM and 1.7 µg/mL
COc1cc(NS(=O)(=O)c2ccc(N)cc2)nc(OC)n1 [Sulfadimethoxine] | 1.6 µM and 0.5 µg/mL
Nc1ccc(S(=O)(=O)Nc2ccnn2-c2ccccc2)cc1 [Sulfaphenazole] | 3.2 µM and 1 µg/mL
Nc1ccc(S(=O)(=O)Nc2nccs2)cc1 [Sulfathiazole] | 1.6 µM and 0.4 µg/mL
Cc1noc(NS(=O)(=O)c2ccc(N)cc2)c1C [Sulfisoxazole] | > 200 µM

same assay, conditions: P∆3-Pore, LB broth, Table S2

SMILES | MICs
C[C@H]1COc2c(N3CCN(C)CC3)c(F)cc3c(=O)c(C(=O)O)cn1c23 [OU-0000806, Levofloxacin] | 0.0039
COc1cccc2c1C(=O)c1c(O)c3c(c(O)c1C2=O)C[C@@](O)(C(=O)CO)C[C@@H]3O[C@H]1C[C@H](N)[C@H](O)[C@H](C)O1 [OU-0000835, Doxorubicin] | 25

test system: P. aeruginosa PΔ3; assay: microbe, parasite or virus in culture; assay type: cell-based, Pseudomonas aeruginosa; details: Pseudomonas aeruginosa, read-out: MICs
Method: as §1

SMILES | MIC
COc1cnc(NS(=O)(=O)c2ccc(N)cc2)nc1 [OU-0000694] | 25 µM and 7 µg/mL
C[C@H]1COc2c(N3CCN(C)CC3)c(F)cc3c(=O)c(C(=O)O)cn1c23 [OU-0000806, Levofloxacin] | 0.25 µM and 0.2 µg/mL
COc1cccc2c1C(=O)c1c(O)c3c(c(O)c1C2=O)C[C@@](O)(C(=O)CO)C[C@@H]3O[C@H]1C[C@H](N)[C@H](O)[C@H](C)O1 [OU-0000835, Doxorubicin] | 25 µM and 13.6 µg/mL
COc1cc(NS(=O)(=O)c2ccc(N)cc2)nc(OC)n1 [Sulfadimethoxine] | 200 µM and 62.1 µg/mL
Nc1ccc(S(=O)(=O)Nc2ccnn2-c2ccccc2)cc1 [Sulfaphenazole] | 200 µM and 62.9 µg/mL
Nc1ccc(S(=O)(=O)Nc2nccs2)cc1 [Sulfathiazole] | 6.25 µM and 1.6 µg/mL
Cc1noc(NS(=O)(=O)c2ccc(N)cc2)c1C [Sulfisoxazole] | > 200 µM

test system: P. aeruginosa PΔ3-Pore cells; assay: LC–MS quantification of intracellular accumulation, PΔ3-Pore; details: 1 min incubation, 10-80 µM;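 note: slope of accumulation versus external concentration fitted as a line through zero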
Method: as §2, §3, §4, §5

SMILES | Concentration slopes of accumulation, PΔ3-Pore_1 min
COc1cnc(NS(=O)(=O)c2ccc(N)cc2)nc1 [OU-0000694] | 3.61
C[C@H]1COc2c(N3CCN(C)CC3)c(F)cc3c(=O)c(C(=O)O)cn1c23 [OU-0000806, Levofloxacin] | 3.52
COc1cccc2c1C(=O)c1c(O)c3c(c(O)c1C2=O)C[C@@](O)(C(=O)CO)C[C@@H]3O[C@H]1C[C@H](N)[C@H](O)[C@H](C)O1 [OU-0000835, Doxorubicin] | 1.89

same assay, conditions: 40 min incubation, 10-80 µM

SMILES | Concentration slopes of accumulation, PΔ3-Pore_40min
COc1cnc(NS(=O)(=O)c2ccc(N)cc2)nc1 [OU-0000694] | 3.14
C[C@H]1COc2c(N3CCN(C)CC3)c(F)cc3c(=O)c(C(=O)O)cn1c23 [OU-0000806, Levofloxacin] | 5.77
COc1cccc2c1C(=O)c1c(O)c3c(c(O)c1C2=O)C[C@@](O)(C(=O)CO)C[C@@H]3O[C@H]1C[C@H](N)[C@H](O)[C@H](C)O1 [OU-0000835, Doxorubicin] | 2.13

test system: P. aeruginosa PAO1; assay: MIC by two-fold dilution, wild type PAO1; assay type: cell-based, Pseudomonas aeruginosa; details: Pseudomonas aeruginosa, PAO1, read-out: MICs
Method: as §1

SMILES | MIC
COc1cnc(NS(=O)(=O)c2ccc(N)cc2)nc1 [OU-0000694] | > 200 µM and > 56.1 µg/mL
COc1cc(NS(=O)(=O)c2ccc(N)cc2)nc(OC)n1 [Sulfadimethoxine] | > 200 µM and 62.1 µg/mL

same assay, conditions: Pseudomonas aeruginosa; PAO1, MOPS-M9 medium; read-out: MICs

SMILES | MIC
C[C@H]1COc2c(N3CCN(C)CC3)c(F)cc3c(=O)c(C(=O)O)cn1c23 [OU-0000806, Levofloxacin] | 0.5 µM and 0.18 µg/mL
COc1cccc2c1C(=O)c1c(O)c3c(c(O)c1C2=O)C[C@@](O)(C(=O)CO)C[C@@H]3O[C@H]1C[C@H](N)[C@H](O)[C@H](C)O1 [OU-0000835, Doxorubicin] | 200 µM and 109 µg/mL
Nc1ccc(S(=O)(=O)Nc2ccnn2-c2ccccc2)cc1 [Sulfaphenazole] | > 200 µM and > 62.9 µg/mL
Nc1ccc(S(=O)(=O)Nc2nccs2)cc1 [Sulfathiazole] | 50 µM and 12.8 µg/mL
Cc1noc(NS(=O)(=O)c2ccc(N)cc2)c1C [Sulfisoxazole] | > 200 µM and > 53.7 µg/mL

test system: P. aeruginosa PΔ3 cells; assay: not given; details: 1 min incubation, 10-80 µM;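 note: slope of accumulation versus external concentration fitted as a line through zero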
Method: as §2, §3, §4, §5

SMILES | Concentration slopes of accumulation, PΔ3_1 min
COc1cnc(NS(=O)(=O)c2ccc(N)cc2)nc1 [OU-0000694] | 0.87
C[C@H]1COc2c(N3CCN(C)CC3)c(F)cc3c(=O)c(C(=O)O)cn1c23 [OU-0000806, Levofloxacin] | 2.43
COc1cccc2c1C(=O)c1c(O)c3c(c(O)c1C2=O)C[C@@](O)(C(=O)CO)C[C@@H]3O[C@H]1C[C@H](N)[C@H](O)[C@H](C)O1 [OU-0000835, Doxorubicin] | 1.32

same assay, conditions: 40 min incubation, 10-80 µM

SMILES | Concentration slopes of accumulation, PΔ3_40 min
COc1cnc(NS(=O)(=O)c2ccc(N)cc2)nc1 [OU-0000694] | 1.82
C[C@H]1COc2c(N3CCN(C)CC3)c(F)cc3c(=O)c(C(=O)O)cn1c23 [OU-0000806, Levofloxacin] | 5.63
COc1cccc2c1C(=O)c1c(O)c3c(c(O)c1C2=O)C[C@@](O)(C(=O)CO)C[C@@H]3O[C@H]1C[C@H](N)[C@H](O)[C@H](C)O1 [OU-0000835, Doxorubicin] | 1.10

test system: P. aeruginosa PAO1-Pore cells; assay: LC–MS quantification of intracellular accumulation, PAO1-Pore; details: 1 min incubation, 10-80 µM;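 note: slope of accumulation versus external concentration fitted as a line through zero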
Method: as §2, §3, §4, §5

SMILES | Concentration slopes of accumulation, PAO1-Pore_1 min
COc1cnc(NS(=O)(=O)c2ccc(N)cc2)nc1 [OU-0000694] | 3.10
C[C@H]1COc2c(N3CCN(C)CC3)c(F)cc3c(=O)c(C(=O)O)cn1c23 [OU-0000806, Levofloxacin] | 6.98
COc1cccc2c1C(=O)c1c(O)c3c(c(O)c1C2=O)C[C@@](O)(C(=O)CO)C[C@@H]3O[C@H]1C[C@H](N)[C@H](O)[C@H](C)O1 [OU-0000835, Doxorubicin] | 3.78

same assay, conditions: 40 min incubation, 10-80 µM

SMILES | Concentration slopes of accumulation, PAO1-Pore_40 min
COc1cnc(NS(=O)(=O)c2ccc(N)cc2)nc1 [OU-0000694] | 2.35
C[C@H]1COc2c(N3CCN(C)CC3)c(F)cc3c(=O)c(C(=O)O)cn1c23 [OU-0000806, Levofloxacin] | 7.94
